Measurements: patent US20080021054A1, “COMPOSITIONS AND TREATMENTS FOR INHIBITING KINASE AND/OR HMG-COA REDUCTASE” (priority 2004, published 2008)
Where “and” joins values, the source holds several entries; their conditions need not be identical. Equal values may be shown once.

Test system: oxazolone-induced mouse ear swelling
Assay: Model for inhibition of topical inflammation (oxazolone-induced mouse ear swelling)
Format: in vivo, BALB/c male mice
Conditions: topical to right ear, ear thickness 24 hours after oxazolone challenge
Description: Left ears were untreated. The thickness of both ears of each animal was measured with a Dyer model micrometer gauge 24 hours after oxazolone challenge, and the net increase in thickness of right ears versus left ears was calculated for each animal. Percent inhibition was calculated according to the formula: [(Iv-It)/Iv]×100, where Iv and It respectively refer to the average net increase in right ear thickness (mm) for vehicle and candidate compound treated mice.

SMILES	% Inh. (dose 2 × 0.3 mg)	% Inh. (dose 2 × 0.3 mg, listed as atorvastatin lactone)	% Inh. (dose 2 × 1 mg)	% Inh. (dose 2 × 2 mg)
CC(C)c1c(C(=O)Nc2ccccc2)c(-c2ccccc2)c(-c2ccc(F)cc2)n1CC[C@@H]1C[C@@H](O)CC(=O)O1 [Atorvastatin lactone]	40%	50% and 58% and 40%	58%	50%
CC(C)c1c(C(=O)Nc2ccccc2)c(-c2ccccc2)c(-c2ccc(F)cc2)n1CC[C@@H](O)C[C@@H](O)CC(=O)O [Atorvastatin sodium]	9%	–	31%	63%
CC(C)n1c(/C=C/C(O)CC(O)CC(=O)O)c(-c2ccc(F)cc2)c2ccccc21 (stereo not shown) [Fluvastatin sodium]	28%	–	–	–
COc1ccc2c(c1)c(CC(=O)O)c(C)n2C(=O)c1ccc(Cl)cc1 [Indomethacin]	44%	–	–	–
O=C([O-])C[C@H](O)C[C@H](O)/C=C/c1c(C2CC2)nc2ccccc2c1-c1ccc(F)cc1.O=C([O-])C[C@H](O)C[C@H](O)/C=C/c1c(C2CC2)nc2ccccc2c1-c1ccc(F)cc1.[Ca+2] [Pitavastatin calcium]	9%	–	–	60%
CC[C@H](C)C(=O)O[C@H]1C[C@H](O)C=C2C=C[C@H](C)[C@H](CC[C@@H](O)C[C@@H](O)CC(=O)O)[C@H]21 [Pravastatin sodium]	24%	–	–	–
CC(C)c1nc(N(C)S(C)(=O)=O)nc(-c2ccc(F)cc2)c1/C=C/[C@@H](O)C[C@@H](O)CC(=O)O [Rosuvastatin sodium]	20%	–	–	–
